Entries after “also recorded” stand apart in the source; their conditions may differ. Read-outs that look alike come from different tables or passages of the source.
What was measured:
hamsters = hamsters (Eisler 1986); cited from earlier work
rats [1] = conditions: calculated from the literature, cited from earlier work
[2] = WHO; cited from earlier work
[3] = human data; cited from earlier work
rats [4] = conditions: adult cycling rats, 10 μg/kg (Li et al. 1995a); cited from earlier work
guinea pigs = conditions: p.o. (Schwetz et al. 1973); cited from earlier work
rats [5] = conditions: cited from earlier work
humans = conditions: cited from earlier work
[6] = system: Dunkin-Hartley guinea pigs; assay: Acute toxicity, daily p.o. doses of TCPT in guinea pigs
Procedure: (§4) In this example, dose-range finding studies were performed with a small number of animals to accommodate the limited availability of TCPT.
(§5) Six adult male Dunkin-Hartley guinea pigs were given daily p.o. doses of TCPT. Due to its insolubility, TCPT was administered as a solid in size 9 gelatin capsules and dosing devices purchased from Torpack, Inc. (Fairfield, N.J.).
(§6) The experimental design of daily dosing accounted for the short half-life known from clinically used phenothiazines and the results of prior unpublished studies with 1,2,3,7,8,9-hexachlorophenothiazine.
(§7) This example first looked at daily p.o. administration to guinea pigs. Eleven guinea pigs received multiple doses of TCPT, with dosages ranging from 2.5 to 100 mg/kg/day.

[7] = as above; conditions: female, Dunkin-Hartley, guinea pig, in vivo, po
Procedure: as §4, §5, §6, §7

[8] = Solubility and stability observations; type: physicochemical
[9] = Acute i.v. toxicity of TCPT in rats; type: in vivo, rat; conditions: female, Sprague-Dawley, rat, in vivo, iv; rats, i.v.; read-out: dose for the acute lethal toxicity (referred to as i.v. LD50)
Procedure: (§1) Animals dosed with 10 mg/kg became unconscious for 30 min, whereas in the 5 mg/kg dose group, the rats lost consciousness for 3 min only, likely representing the effects of acetone in this case.
(§2) Due to the unexpectedly rapid onset of death, no more detailed observations, e.g. on the heart rate, could be made.

Sprague-Dawley rats = assay: Acute i.v. toxicity of TCPT in rats; type: in vivo, rat
Procedure: as §1, §2

[10] = Half-lives after intravenous dosage in guinea pigs; conditions: guinea pig, in vivo, 10 mg/kg, two guinea pigs, i.v. 10 mg/kg
From the text: (§3) Studies on a limited number of animal have been conducted to determine the approximate half-life of TCPT.

[11] = system: Dunkin-Hartley guinea pigs; assay: Effects on ovulation in guinea pigs; type: in vivo, guinea pig
From the text: In the present invention, guinea pigs were chosen for this study for two reasons. First, they represent the species that is the most sensitive to TCDD. […] Dosing with gelatin capsules can be performed in this species without anesthesia, which is not possible in rats. This is an important factor, since anesthetics generally influence ovulation.
The guinea pigs were followed for at least two regular consecutive cycles (about 16 days each) before commencing with dosing and also after the administration of TCPT was terminated. Their cycles were tracked by observation of vaginal opening and vaginal smears. The day of ovulation, day 1, was defined as a leucocytic smear following a cornified smear. The animals were dosed for 9 consecutive days starting on day 9 of a highly regular normal cycle. This way, the dosing period overlapped with the relevant time-span for ovulation and regulation of the cycle length (Terranova & Greenwald 1981). The animals received dose rates of 2.5, 5, 10 and 20 mg/kg TCPT per day. One animal was pair-fed to an animal dosed with 20 mg/kg/day TCPT.

guinea pig = assay: Single intravenous administration of TCPT in guinea pigs; type: in vivo; conditions: single i.v. 10 mg/kg in acetone (0.5 ml/kg)
Procedure: During ovulation studies (see Example 4 below), an adult female was lost after having been dosed with 10 mg/kg/day for 9 consecutive days; the animal died on day 13.
In this example, the toxicity of TCPT was compared between each species. […] On the other hand, a female rat receiving i.v. 10 mg/kg was sedated within 30 minutes.

[12] = Half-lives after intravenous dosage in rats; conditions: rat, in vivo
From the text: as §3

CYP 1A1 = assay: In vitro ethoxyresorufin-O-deethylase (EROD) study in rat hepatoma cells; type: cell-based
Procedure: The induction of CYP 1A1 has been quantitatively measured in an cell-line study. The choice of EROD as an in vitro study was made based on its established procedure and speed. […] Its metabolic context is both, a strength and a weakness of the EROD assay. The greatest advantage of cell-based assays is the detection of the actual gene expression as compared to the study of interaction with DREs (Seidel et al. 2000).
The EROD-specific activity of TCPT declined over time, with its maximum at 24 h out of measurements after 24, 48 and 72 h. This indicates a comparatively rapid metabilization of TCPT by rat hepatoma cells.

[13] = system: Dunkin-Hartley guinea pigs; assay: Altering the regulation level for bodyweight in guinea pigs; type: in vivo, guinea pig
Procedure: In the present invention, guinea pigs were dosed for 9 consecutive days with 2.5, 5, 10 and 20 mg/kg/day TCPT, respectively. The observations presented here were made during another study which was not designed for comparative body weight analysis. […] In contrast to studies on TCDD, weight gain resumed 1-2 days after cessation, probably due to TCPT's shorter half-life and therefore more rapid elimination.

rats [14] = assay: Observed interaction with anesthetics (pentobarbital)
[15] = 20 mg/kg/day, 9 consecutive days
[16] = peroral solid TCPT 30 min prior to pentobarbital (55 mg/kg)

Clc1cc2c(cc1Cl)Oc1cc(Cl)c(Cl)cc1O2 [TCDD, 2,3,7,8-Tetrachlorodibenzo-p-dioxin]
LD50 (hamsters): 1157−5051 μg/kg | body burden below which weight gain resumed (rats [1]; 3 weeks after dosing): Below 5 μg/kg | body burden at which feed intake started rising again (rats [1]; after non-lethal dose of 15 μg/kg, after 11 days): 6.6 to 8 µg/kg | TEF-value [2]: 1 | absorption [3]: > 86% | effect on cycle and ovulation (rats [4]): prolonged diestrus stage | LD50 (guinea pigs): 0.0021 mg/kg | LD50 (rats [5]; Han Wistar rats (Pohjanvirta et al.)): > 3 mg/kg | LD50 (rats [5]; Long-Evans rats (Pohjanvirta et al.)): 0.01 mg/kg | inter-strain difference in LD50 (rats [5]; between Long-Evans and Han Wistar rats): ~300 fold | LD50 (rats [5]; female rats (Schwetz et al. 1973)): 0.045 mg/kg | LD50 (rats [5]; male rats (Schwetz et al. 1973)): 0.022 mg/kg | i.v. LD50 (rats [5]; rats, i.v. (Schwetz et al. 1973)): 0.025 mg/kg | concentration below which most individuals do not show signs (humans; humans (Williams & Wilkins 1992)): 11,000 ppt | dose corresponding to 11,000 ppt (humans; humans (Young 1984)): about 100 μg/kg | concentration at which chloracne symptoms may occur (humans; susceptible individuals, based on serum lipid content): 800 ppt

Clc1cc2c(cc1Cl)Oc1c(cc(Cl)c(Cl)c1Cl)O2 [PeCDD, 1,2,3,7,8-pentachlorodibenzo-p-dioxin]
TEF-value [2]: 1

Clc1cc2c(cc1Cl)Sc1cc(Cl)c(Cl)cc1N2 [TCPT, 2,3,7,8-tetrachlorophenothiazine]
day of death ([6]; adult female guinea pig, 10 mg/kg/day p.o. for 9 consecutive days): 13 days | Result ([6]; adult male guinea pig, animal 1, p.o. 25 mg/kg/d for 18 days): survived | Result ([6]; adult male guinea pig, animal 2, p.o. l00 mg/kg/d for 8 days): died | Result ([6]; adult male guinea pig, animal 3, p.o. 50, 10, 25, 50 mg/kg/d (dose-range finding) for 17 days): died | Result ([6]; adult male guinea pigs, animals 4-6, p.o. 27.5, 44, 50, 57, 67, 75 mg/kg/d for 13 days): survived | body weight ([6]; eleven guinea pigs, multiple p.o. doses 2.5 to 100 mg/kg/day): body weight loss | p.o. LD50 of TCPT relative to reported p.o. LD50 of TCDD ([6]; guinea pigs): roughly 10,000 times | autopsy finding ([6]; guinea pigs that died): loss of all adipose tissue | days of dosing until death ([6]; guinea pigs, p.o. 25-50 mg/kg/day): 8 to 11 days | dose for the acute lethal toxicity ([6]; guinea pigs, p.o., daily dosing): 25 to 50 mg/kg/day | difference in acute toxicity to TCDD ([6]; oral administration): 10^−4 fold | peroral potency compared with TCDD (wasting syndrome) ([6]; p.o. dosing): four orders of magnitude lower | tolerance ([6]; survivors of daily p.o. dosing): development of tolerance | LD50 [7]: 25 to 50 mg/kg | stability in acetone [8]: decomposes in acetone | stability in acetone ([8]; listed as KWF3): degraded when kept in acetone for longer periods of time | solubility ([8]; any solvent): insolubility; also recorded: low solubility | LD50 [9]: 10 to 30 mg/kg | sedation (Sprague-Dawley rats; female rat, i.v. 10 mg/kg): ≤ 30 min | duration of lost consciousness (Sprague-Dawley rats; female rats, i.v. 5 mg/kg in acetone (1 ml/kg), likely effect of acetone): 3 min | duration of unconsciousness (Sprague-Dawley rats; female rats, i.v. 10 mg/kg in acetone (1 ml/kg)): 30 min | lethality (Sprague-Dawley rats; female rats, i.v. 30 mg/kg in acetone (1 ml/kg), 30 mg/kg): died within five seconds; also recorded: dropped dead within five seconds; also recorded: lethal dose | i.v. LD50 of TCPT relative to reported i.v. LD50 of TCDD (Sprague-Dawley rats; rats): roughly 1,000 times | half-life ([10]; read-out: half-life, distribution phase (converted)): 0.42 h | half-life ([10]; read-out: half-life, elimination phase (converted)): 2.71 h | effect on cycle/ovulation ([11]; 10 mg/kg/day, 9 consecutive days): shortened period of vaginal opening | effect on ovulation [11, 15]: inhibited ovulation | vaginal opening [11, 15]: irregular vaginal opening | direct or endocrine effect on the ovaries ([11]; guinea pigs, conclusion of the experiment): no direct or endocrine effect on the ovaries | effect on cycle/ovulation ([11]; two lowest dose groups (2.5, 5 mg/kg per day), 9 consecutive days from day 9 of cycle): no effect | observable effects (guinea pig): no observable effect | half-life ([12]; 5 mg/kg, two rats, i.v. 5 mg/kg, read-out: half-life, distribution phase (converted)): 0.82 h | half-life ([12]; 5 mg/kg, two rats, i.v. 5 mg/kg, read-out: half-life, elimination phase (converted)): 5.42 h | half-life ([12]; 10 mg/kg, one rat, i.v. 10 mg/kg, read-out: half-life, distribution phase (converted)): 0.47 h | half-life ([12]; 10 mg/kg, one rat, i.v. 10 mg/kg, read-out: half-life, elimination phase (converted)): 2.25 h | potency compared with TCDD (acute toxicity in animals and in vitro EROD-specific activity) (CYP 1A1): three orders of magnitude less potent | time of maximum EROD-specific activity (CYP 1A1; measurements after 24, 48 and 72 h, declined over time): 24 h | efficacy, of the efficacy of TCDD, in vitro EROD-bioassay (CYP 1A1; rat hepatoma cells): 77% | set-point of bodyweight ([13]; all survivors): reduced set-point of bodyweight | bodyweight during the dosing period ([13]; guinea pigs, 2.5, 5, 10 and 20 mg/kg/day for 9 consecutive days): decrease in bodyweight | time until weight gain resumed after cessation ([13]; guinea pigs, after 9 days of dosing): 1 to 2 days | reduction of set-point for bodyweight ([13]; treated animal (20 mg/kg/day, 9 days), FIG. 2): 66 grams | mortality in anesthetized animals (rats [14]; i.v. 3 mg/kg, pentobarbital anesthesia): one animal dying out of three | effect in anesthetized animals (rats [14]; i.v. 5 mg/kg in acetone (1 ml/kg), pentobarbital 55 mg/kg): immediate respiratory arrest | fatalities (rats [14]; [16]): no fatalities | shortening of the onset of anesthesia (rats [14]; [16]): about 50% | breathing (rats [14]; rats, p.o. administration of various doses during pentobarbital-induced anesthesia): breathed very shallow and in long intervals

Source: patent US20050288279A1, “Phenothiazine derivatives and their method of use” (priority 2004, published 2005)
